Assay results taken from patent US11702418B2, “SOS1 inhibitors” (priority 2019, dated 2023).
Counter-ions that a name gives are not always drawn. Like-named read-outs stand apart in the source and are kept apart here.

Columns and labels:
[1] = target: recombinant human SOS1 polypeptide (amino acids 560-1049) (Homo sapiens (Human), UniProt Q07889); assay: biochemical; assay type: binding; conditions: read-out: Ki, Inhibition of Labeled Tracer Binding to SOS1
pERK in MKN1 cells = assay: cells; assay type: cell-based
Method: The cells were incubated for approximately 0.5-1 hour with the compounds solubilized in DMSO at 37° C. Cells were immediately fixed by adding 50 μL of 4% formaldehyde to all wells in a fume hood and the plates were incubated for 20 minutes at room temperature. The formaldehyde was discarded from the plates and 150 μL of ice-cold methanol was added to permeabilize the cells for 10 minutes at −20° C. The methanol was discarded from each of the plates and any liquid remaining in the plate by tapping the plate against paper towels. […] The plates were incubated overnight at 4° C. on a shaker.
On Assay day 2, the primary antibody solution was removed. […] The secondary antibody solution as removed and each plate was washed with PBST 3× times. Any liquid remaining was discarded and the plate was imaged using the Licor Odyssey machine according to the manufacturer's instruction, using a set focus length at 3 mm and both 800 nm and 700 nm filters. The GAPDH normalized scan values for each well were divided by the average of vehicle wells to get the % of pERK inhibition. The IC50 values were then calculated with the Graph pad Prism software.

[2] = HTRF displacement, Cy5 labelled tracer, Morrison equation for competitive binding
[3] = Homo sapiens, MKN-1, pERK inhibition, In-Cell Western, MKN1 or H358 cells (Table 24 does not say which), 0.5-1 hour incubation, read-out: IC50

Sequence of recombinant human SOS1 polypeptide (amino acids 560-1049) (Q07889 560-1049): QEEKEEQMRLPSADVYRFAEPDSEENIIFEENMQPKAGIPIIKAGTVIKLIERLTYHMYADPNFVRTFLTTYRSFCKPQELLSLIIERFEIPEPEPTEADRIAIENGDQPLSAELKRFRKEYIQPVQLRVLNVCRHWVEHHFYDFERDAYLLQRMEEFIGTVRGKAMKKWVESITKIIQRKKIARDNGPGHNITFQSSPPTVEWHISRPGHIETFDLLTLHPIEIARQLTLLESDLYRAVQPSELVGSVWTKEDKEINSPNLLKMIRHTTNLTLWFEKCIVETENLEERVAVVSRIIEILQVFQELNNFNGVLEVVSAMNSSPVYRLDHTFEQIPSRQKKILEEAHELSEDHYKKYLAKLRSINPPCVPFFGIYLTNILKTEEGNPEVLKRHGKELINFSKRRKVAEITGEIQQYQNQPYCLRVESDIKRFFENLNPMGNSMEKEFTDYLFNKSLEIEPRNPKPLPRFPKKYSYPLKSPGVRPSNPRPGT

Structure (SMILES) | Ki [1, 2] [nM] | IC50 (pERK in MKN1 cells; [3]) [nM] | IC50 (pERK in MKN1 cells; pERK inhibition, In-Cell Western, MKN1 or H358 cells (Table 24 does not say which), 0.5-1 hour incubation, read-out: IC50) [nM] | Ki [1] [nM] | IC50 (pERK in MKN1 cells; Homo sapiens, MKN-1) [nM]
Cc1c([C@@H](C)Nc2nnc(C)c3ccc(-n4cc5c(n4)CNC5)cc23)cccc1C(F)(F)F [Example 10-16, (R)-7-(5,6-dihydropyrrolo[3,4-c]pyrazol-2(4H)-yl)-4-methyl-N-(1-(2-methyl-3-(trifluoromethyl)phenyl)ethyl)phthalazin-1-amine] | 7.75 | 325 |  |  | 
Cc1cc(F)ccc1[C@@H](C)Nc1nnc(C)c2cnc(N3CC4CC(C3)O4)cc12 [Example 12-84] | 43.4 | 280 |  |  | 
Cc1c([C@@H](C)Nc2nnc(C)c3ccc(OC4COC4)cc23)cccc1C(F)(F)F [Example 13-2, (R)-4-methyl-N-(1-(2-methyl-3-(trifluoromethyl)phenyl)ethyl)-7-(oxetan-3-yloxy)phthalazin-1-amine] | 191 | 2070 |  |  | 
Cc1c([C@@H](C)Nc2nnc(C)c3ccc(N4CCNCC(F)(F)C4)cc23)cccc1C(F)(F)F [Example 10-5, (R)-7-(6,6-difluoro-1,4-diazepan-1-yl)-4-methyl-N-(1-(2-methyl-3-(trifluoromethyl)phenyl)ethyl)phthalazin-1-amine] | < 0.01 | 108 |  |  | 
Cc1c(C#N)cccc1[C@@H](C)Nc1nnc(C)c2cnc(N3C[C@H]4CC[C@@H]3CN4C)cc12 [Example 12-40] | 0.64 | 24 |  |  | 
Cc1c(C#N)cccc1[C@@H](C)Nc1nnc(C)c2c(F)cc(N3CCN4COCC[C@@H]4C3)cc12 [Example 21-9, 3-((R)-1-((5-fluoro-7-((R)-hexahydro-2H,6H-pyrazino[1,2-c][1,3]oxazin-2-yl)-4-methylphthalazin-1-yl)amino)ethyl)-2-methylbenzonitrile] | 2.1 | 54 |  |  | 
Cc1c([C@@H](C)Nc2nnc(C)c3ccc(N4CCC5(CCCN5)CC4)cc23)cccc1C(F)(F)F [Example 10-18, (R)-4-methyl-N-(1-(2-methyl-3-(trifluoromethyl)phenyl)ethyl)-7-(1,8-diazaspiro[4.5]decan-8-yl)phthalazin-1-amine] | 1.41 |  | 291 |  | 
Cc1c([C@@H](C)Nc2nncc3ccc(O[C@H]4CC[C@H](N(C)C)C4)cc23)cccc1C(F)(F)F [Example 2-11, 7-(((trans)-3-(dimethylamino)cyclopentyl)oxy)-N-((R)-1-(2-methyl-3-(trifluoromethyl)phenyl)ethyl)phthalazin-1-amine] | 2.83 | 243 |  |  | 
Cc1c([C@@H](C)Nc2nnc(C)c3ccc(N4CC[C@@H](N(C)C)C(F)(F)C4)cc23)cccc1C(F)(F)F [Example 21-5, 7-((R)-4-(dimethylamino)-3,3-difluoropiperidin-1-yl)-4-methyl-N—((R)-1-(2-methyl-3-(trifluoromethyl)phenyl)ethyl)phthalazin-1-amine] | 1.34 | 1110 |  |  | 
Cc1nnc(N[C@H](C)c2cccc(C(F)(F)F)c2F)c2cc(N3CC(C)(O)C3)ncc12 [Example 12-61] | 1.68 | 21 |  |  | 
Cc1c([C@@H](C)Nc2nnc(C)c3cnc(N4CCS(=O)(=O)CC4)cc23)cccc1C(F)(F)F [Example 12-13] | 1.57 | 39 |  |  | 
Cc1c(C#N)cccc1[C@@H](C)Nc1nnc(C)c2ccc(N3CC(N(C)C)C3)cc12 [Example 10-75, (R)-3-(1-((7-(3-(dimethylamino)azetidin-1-yl)-4-methylphthalazin-1-yl)amino)ethyl)-2-methylbenzonitrile Hydrochloride salt] |  |  |  | 6.51 | 56
Cc1c(C#N)cccc1[C@@H](C)Nc1nnc(C)c2ccc(N3CCN(c4cnn(C)c4)CC3)cc12 [Example 10-70, (R)-2-methyl-3-(1-((4-methyl-7-(4-(1-methyl-1H-pyrazol-4-yl)piperazin-1-yl)phthalazin-1-yl)amino)ethyl)benzonitrile] | 0.89 | 15 |  |  | 
Cc1nnc(N[C@H](C)c2cccc(F)c2F)c2cc(N3CCN4CCOC[C@@H]4C3)ncc12 [Example 12-75] | 14 | 87 |  |  | 
COC1(C)CN(c2cc3c(N[C@H](C)c4cccc(C(F)(F)F)c4C)nnc(C)c3cn2)C1 [Example 12-37] | 0.85 | 32 |  |  | 
Cc1c([C@@H](C)Nc2nnc(C)c3cnc(N4CCC(N(C)C)CC4)cc23)cccc1C(F)(F)F [Example 12-15] | 0.25 | 17 |  |  | 
Cc1c([C@@H](C)Nc2nnc(C)c3ccc(N4CCC5(CCN(C)C5=O)CC4)cc23)cccc1C(F)(F)F [Example 10-40, (R)-2-methyl-8-(1-methyl-4-((1-(2-methyl-3-(trifluoromethyl)phenyl)ethyl)amino)phthalazin-6-yl)-2,8-diazaspiro[4.5]decan-1-one] | 0.43 | 11 |  |  | 
Cc1c(C#N)cccc1[C@@H](C)Nc1nnc(C)c2cnc(N3CCC(C)(N(C)C)CC3)cc12 [Example 12-46] | 0.92 | 37 |  |  | 
Cc1cn2c(n1)CN(c1ccc3cnnc(N[C@H](C)c4cccc(C(F)(F)F)c4C)c3c1)CC2 [Example 1-40, (R)-N-(1-(2-methyl-3-(trifluoromethyl)phenyl)ethyl)-7-(2-methyl-5,6-dihydroimidazo[1,2-a]pyrazin-7(8H)-yl)phthalazin-1-amine] | 0.27 | 171 |  |  | 
Cc1nc2n(c1C)CCN(c1ccc3cnnc(N[C@H](C)c4cccc(C(F)(F)F)c4C)c3c1)C2 [Example 1-28, (R)-7-(2,3-dimethyl-5,6-dihydroimidazo[1,2-a]pyrazin-7(8H)-yl)-N-(1-(2-methyl-3-(trifluoromethyl)phenyl)ethyl)phthalazin-1-amine] | 0.17 | 61 |  |  | 
Cc1c([C@@H](C)Nc2nnc(C)c3ccc(N4CCN5C(=O)CC[C@H]5C4)cc23)cccc1C(F)(F)F [Example 10-13, (S)-2-(1-methyl-4-(((R)-1-(2-methyl-3-(trifluoromethyl)phenyl)ethyl)amino)phthalazin-6-yl)hexahydropyrrolo[1,2-a]pyrazin-6(2H)-one] | 0.49 | 39 |  |  | 
Cc1c(C#N)cc(F)cc1[C@@H](C)Nc1nnc(C)c2cnc(N3CC4CC(C3)O4)cc12 [Example 12-106] | 11.1 | 114 |  |  | 
Cc1c([C@@H](C)Nc2nncc3ccc(OC4CCN(C)C4(C)C)cc23)cccc1C(F)(F)F (stereo partly drawn) [Example 2-5, N-((R)-1-(2-methyl-3-(trifluoromethyl)phenyl)ethyl)-7-((1,2,2-trimethylpyrrolidin-3-yl)oxy)phthalazin-1-amine] | 1.78 | 82 |  |  | 
Cc1c([C@@H](C)Nc2nnc(C)c3cnc(N4C[C@H]5CC[C@@H]4CN5C)cc23)cccc1C(F)(F)F [Example 12-26] | 0.45 | 27 |  |  | 
Cc1nnc(N[C@H](C)c2cccc(C(F)(F)F)c2F)c2cc(N3CC(N(C)C)C3)ccc12 [Example 10-76, (R)-7-(3-(dimethylamino)azetidin-1-yl)-N-(1-(2-fluoro-3-(trifluoromethyl)phenyl)ethyl)-4-methylphthalazin-1-amine] | 3.44 | 85 |  |  | 
Cc1c(C#N)cccc1[C@@H](C)Nc1nnc(C)c2ccc(N3CCOCC3)cc12 [Example 10-51, (R)-2-methyl-3-(1-((4-methyl-7-morpholinophthalazin-1-yl)amino)ethyl)benzonitrile] | 1.4 | 39 |  |  | 
